Measured values published in patent US20230271968A1, “PYRAZOLOPYRIMIDINE COMPOUND USED AS ATR KINASE INHIBITOR” (priority 2020, published 2023).
Where two headings read alike, the source gives them in different places.

Experiments:
[1] = test system: TOV21G (ovarian cancer) cells; assay: Cell proliferation inhibition in vitro, CellTiter-Glo luminescence, TOV21G; format: cell-based, human; conditions: read-out: TOV21G/IC50/μM
Procedure: (§1) By detecting the effect of compounds on cell activity in vitro in tumor cell lines TOV21G (ovarian cancer) and MV4-11 (leukemia), the inhibitory effect of compounds on cell proliferation was studied in this assay.
(§2) TOV21G cells and MV4-11 cells were purchased from American Type Culture Collection (ATCC).
About 1000 cells were inoculated in each well of a 96-well culture plate, and cultured for 24 hours. Different concentrations (0-10 μM) of compounds to be assayed were added to treat the cells. Each group was assayed in triplicate. Blank wells (containing medium only) and control wells (inoculated cells without being treated with drug) were set. Cells were cultured for 120 hours. 40 μL of Cell Titer-Glo solutions (Promega, #G7573) were added to each well, and the cells were incubated with shaking for 20 min in the dark.
(§3) Inhibition rate (%)=100%×(control well−assay well)/(control well−blank well)

ATR kinase = ATR kinase (Homo sapiens (Human), UniProt Q13535); assay: Assay of ATR kinase activity (time-resolved fluorescence, phosphorylation of p53-derived protein); format: biochemical; conditions: ATR/ATRIP, p53 substrate, 30 minutes at room temperature
Chain of ATR kinase (Q13535 whole entry, looked up): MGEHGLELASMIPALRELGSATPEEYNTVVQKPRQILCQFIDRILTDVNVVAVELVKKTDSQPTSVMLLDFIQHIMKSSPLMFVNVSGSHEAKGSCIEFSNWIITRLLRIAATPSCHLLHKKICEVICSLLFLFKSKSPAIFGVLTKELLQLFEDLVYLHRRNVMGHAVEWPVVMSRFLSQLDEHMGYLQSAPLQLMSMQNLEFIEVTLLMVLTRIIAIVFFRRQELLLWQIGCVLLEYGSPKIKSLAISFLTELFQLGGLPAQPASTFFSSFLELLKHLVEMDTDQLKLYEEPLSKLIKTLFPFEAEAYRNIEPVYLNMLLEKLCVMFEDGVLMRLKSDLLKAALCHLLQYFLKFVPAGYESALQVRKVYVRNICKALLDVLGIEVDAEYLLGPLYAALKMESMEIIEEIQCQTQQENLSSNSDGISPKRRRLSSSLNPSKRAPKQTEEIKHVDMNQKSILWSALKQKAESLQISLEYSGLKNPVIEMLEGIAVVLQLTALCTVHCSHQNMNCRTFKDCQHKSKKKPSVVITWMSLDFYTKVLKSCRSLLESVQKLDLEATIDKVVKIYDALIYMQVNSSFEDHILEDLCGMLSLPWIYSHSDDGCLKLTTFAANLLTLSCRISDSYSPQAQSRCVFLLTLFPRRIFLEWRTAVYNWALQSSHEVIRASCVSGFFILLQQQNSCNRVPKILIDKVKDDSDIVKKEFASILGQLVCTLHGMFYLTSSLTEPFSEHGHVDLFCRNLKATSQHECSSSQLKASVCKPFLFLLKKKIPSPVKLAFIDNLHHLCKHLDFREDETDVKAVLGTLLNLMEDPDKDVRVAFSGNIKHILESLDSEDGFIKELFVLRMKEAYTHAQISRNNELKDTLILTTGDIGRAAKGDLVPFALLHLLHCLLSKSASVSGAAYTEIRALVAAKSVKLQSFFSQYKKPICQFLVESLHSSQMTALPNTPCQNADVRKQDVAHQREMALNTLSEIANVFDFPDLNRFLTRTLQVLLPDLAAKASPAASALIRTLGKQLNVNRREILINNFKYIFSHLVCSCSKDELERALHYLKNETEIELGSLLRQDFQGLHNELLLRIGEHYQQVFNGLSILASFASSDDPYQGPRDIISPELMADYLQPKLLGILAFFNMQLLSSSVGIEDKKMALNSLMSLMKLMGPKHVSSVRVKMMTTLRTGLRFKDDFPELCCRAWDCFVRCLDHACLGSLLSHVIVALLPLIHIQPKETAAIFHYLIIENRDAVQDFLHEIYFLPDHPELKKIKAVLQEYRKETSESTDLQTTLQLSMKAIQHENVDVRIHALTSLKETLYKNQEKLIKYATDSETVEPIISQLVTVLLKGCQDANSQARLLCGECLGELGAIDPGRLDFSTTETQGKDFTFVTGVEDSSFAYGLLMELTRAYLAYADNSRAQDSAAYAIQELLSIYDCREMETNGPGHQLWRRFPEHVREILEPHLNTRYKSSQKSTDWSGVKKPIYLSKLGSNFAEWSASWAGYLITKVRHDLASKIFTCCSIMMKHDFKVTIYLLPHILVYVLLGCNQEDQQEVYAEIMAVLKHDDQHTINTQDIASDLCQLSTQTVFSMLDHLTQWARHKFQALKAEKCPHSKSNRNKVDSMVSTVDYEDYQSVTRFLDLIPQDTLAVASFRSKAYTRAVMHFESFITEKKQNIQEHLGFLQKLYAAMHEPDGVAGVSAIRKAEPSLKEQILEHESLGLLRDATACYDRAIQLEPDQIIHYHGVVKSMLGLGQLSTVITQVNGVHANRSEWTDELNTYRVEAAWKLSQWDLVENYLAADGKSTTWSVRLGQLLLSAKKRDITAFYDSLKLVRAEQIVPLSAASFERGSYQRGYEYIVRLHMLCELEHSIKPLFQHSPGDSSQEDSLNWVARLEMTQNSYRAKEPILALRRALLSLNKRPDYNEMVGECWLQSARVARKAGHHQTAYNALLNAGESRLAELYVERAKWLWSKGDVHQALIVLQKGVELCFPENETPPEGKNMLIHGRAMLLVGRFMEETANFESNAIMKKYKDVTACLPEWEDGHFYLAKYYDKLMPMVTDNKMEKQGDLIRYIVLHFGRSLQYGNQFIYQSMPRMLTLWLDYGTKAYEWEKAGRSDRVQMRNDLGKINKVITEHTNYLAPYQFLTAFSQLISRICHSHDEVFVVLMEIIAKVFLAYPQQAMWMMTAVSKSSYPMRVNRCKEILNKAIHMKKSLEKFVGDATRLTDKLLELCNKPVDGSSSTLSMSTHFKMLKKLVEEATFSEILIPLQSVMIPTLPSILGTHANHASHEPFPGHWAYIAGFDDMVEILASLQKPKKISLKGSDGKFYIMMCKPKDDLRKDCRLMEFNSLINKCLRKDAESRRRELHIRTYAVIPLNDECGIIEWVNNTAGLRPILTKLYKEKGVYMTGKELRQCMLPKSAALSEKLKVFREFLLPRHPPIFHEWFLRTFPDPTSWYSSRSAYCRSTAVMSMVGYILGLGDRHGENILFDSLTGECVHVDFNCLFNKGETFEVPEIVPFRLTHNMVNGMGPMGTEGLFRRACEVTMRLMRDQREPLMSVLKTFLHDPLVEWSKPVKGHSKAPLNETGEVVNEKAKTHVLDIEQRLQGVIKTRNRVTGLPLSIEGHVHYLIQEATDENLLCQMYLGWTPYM
Chain of ATR kinase (Q8WXE1 whole entry partner, looked up): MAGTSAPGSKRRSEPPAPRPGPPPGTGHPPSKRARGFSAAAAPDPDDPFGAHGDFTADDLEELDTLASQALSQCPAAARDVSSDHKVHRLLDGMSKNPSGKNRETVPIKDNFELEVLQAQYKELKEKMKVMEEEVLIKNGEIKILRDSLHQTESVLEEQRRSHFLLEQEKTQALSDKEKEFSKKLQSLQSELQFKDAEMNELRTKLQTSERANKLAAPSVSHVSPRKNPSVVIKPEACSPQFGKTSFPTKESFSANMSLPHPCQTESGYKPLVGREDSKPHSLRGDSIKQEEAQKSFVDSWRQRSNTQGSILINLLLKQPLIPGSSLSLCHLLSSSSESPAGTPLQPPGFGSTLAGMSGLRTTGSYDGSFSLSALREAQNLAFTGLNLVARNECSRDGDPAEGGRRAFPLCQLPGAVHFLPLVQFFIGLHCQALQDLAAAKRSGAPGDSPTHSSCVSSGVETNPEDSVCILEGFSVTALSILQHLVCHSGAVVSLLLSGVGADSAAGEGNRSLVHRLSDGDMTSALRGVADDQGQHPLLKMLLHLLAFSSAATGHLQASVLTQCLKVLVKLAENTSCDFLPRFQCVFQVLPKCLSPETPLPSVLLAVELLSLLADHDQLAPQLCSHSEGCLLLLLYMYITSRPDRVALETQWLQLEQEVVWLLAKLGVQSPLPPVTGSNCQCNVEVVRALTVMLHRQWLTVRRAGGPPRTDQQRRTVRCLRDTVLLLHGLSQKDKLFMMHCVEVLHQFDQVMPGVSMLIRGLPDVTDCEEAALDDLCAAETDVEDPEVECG
Procedure: The amount of phosphorylated protein was determined by time-resolved fluorescence in this assay. The amount of phosphorylated protein was detected by anti-p53-phospho-(serine 15)-K-specific antibody (Cisbio, art. No.: 61GSTDLA) and d2 labeled anti-GST antibody (Cisbio, art. No. 61P08KAE). […] The reagents used above were purchased from Sigma or Invitrogen, except for those whose manufacturers were mentioned.
Operations were as Follows
4×p53 substrate working solution (40 nM) was prepared with 1×reaction buffer, and 2.5 μL of the 4×p53 substrate working solution was added to a 384-well analysis plate. […] 4×ATP working solution (2 mM) was prepared with deionized water, and 2.5 μL of the 4×ATP working solution was added to a 384-well analysis plate. The plates were incubated at room temperature in dark for 30 minutes. […] Finally, 5 μL of assay mixture (0.084 ng/μL Anti-phospho-p53 (ser15)-K and 5 ng/μL Anti-GST-d2) was added to the 384 well analysis plates, and incubated at room temperature overnight. The fluorescence signal was detected with ENVISION (Perkinelmer) instrument (excitation wavelength: 320 nm, emission wavelength: 665 nm and 615 nm). […] IC50 values of compounds were calculated by standard software for parameter fitting (GraphPad Prism 6.0).

MV4-11 (leukemia) cells = assay: Cell proliferation inhibition in vitro, CellTiter-Glo luminescence, MV4-11; format: cell-based, human; conditions: MV4-11 cells, 120 hours
Procedure: as §1, §2
MV-4-11 cells were cultured in IMDM medium (containing 20% of FBS). About 10,000 cells were inoculated in each well of a 96-well culture plate, and treated by adding different concentrations (0-10 μM) of compounds to be assayed. Each group was assayed in triplicate. Blank wells (containing medium only) and control wells (inoculated cells without being treated with drug) were set. Cells were cultured for 120 hours. 40 μL of Cell Titer-Glo solutions were added to each well, and the cells were incubated with shaking for 20 min in the dark. 100 μL of solution was transferred from each well to a 96-well blank plate, and the luminescence value was read by Biotek Synergy H1 multifunctional microplate reader.
as §3

DNA-PK = DNA-PK (Homo sapiens (Human), UniProt P78527); assay: Kinase selectivity: inhibitory activity against DNA-PK; format: biochemical; conditions: 3-fold serial dilution from 10 μM to 0.51 nM, 10 concentrations; read-out: IC50/DNAPK
Procedure: (§4) The compounds of the present disclosure were assayed for inhibition of the same family (ATM, DNA-PK, PI3K, mTOR): […]

[2] = In vivo pharmacokinetics in male ICR mice, oral gavage; conditions: mouse, 10 mg/kg, plasma
Procedure: In vivo pharmacokinetic studies were performed on the compounds of the present disclosure.
Male ICR mice (3 mice/group) were administered orally by gavage at a dose of 10 mg/kg. The plasma samples were collected before administration (0 h) and after administration (0.25, 0.5, 1, 2, 4, 6, 8, 24 h). The collected samples were subjected to LC/MS/analysis, and the data were collected. The relevant pharmacokinetic parameters were calculated by Analyst v1.6.2 (AB Applied Biosystems Company, USA) software using the collected analytical data.

[3] = In vitro stability assay in human liver microsome; format: in vitro ADME; conditions: human liver microsomes, compound 2.0 nM, with or without NADPH, within 60 minutes of incubation; read-out: Human liver microsome t1/2
Procedure: (§5) The compounds of the present disclosure were subjected to stability assay in liver microsome. The compound to be assayed (with a final concentration of 2.0 nM) was co-incubated with human/mouse liver microsomes with or without the addition of NADPH. The concentration of the compound in the supernatant was determined within 60 minutes of incubation.

[4] = In vitro stability assay in mouse liver microsome; format: in vitro ADME; conditions: mouse liver microsomes, compound 2.0 nM, with or without NADPH, within 60 minutes of incubation; read-out: Mouse liver microsome t1/2
Procedure: as §5

ATM = ATM (Homo sapiens (Human), UniProt Q13315); assay: Kinase selectivity: inhibitory activity against ATM; format: biochemical; conditions: 3-fold serial dilution from 10 μM to 0.51 nM, 10 concentrations
Procedure: as §4

PI3Kα = PI3Kα (Homo sapiens (Human), UniProt P42336); assay: Kinase selectivity: inhibitory activity against PI3Kα; format: biochemical; conditions: 3-fold serial dilution from 10 μM to 0.51 nM, 10 concentrations
Procedure: as §4

PI3Kδ = PI3Kδ (Homo sapiens (Human), UniProt O00329); assay: Kinase selectivity: inhibitory activity against PI3Kδ; format: biochemical; conditions: 3-fold serial dilution from 10 μM to 0.51 nM, 10 concentrations
Procedure: as §4

mTOR = mTOR (Homo sapiens (Human), UniProt P42345); assay: Kinase selectivity: inhibitory activity against mTOR; format: biochemical; conditions: 3-fold serial dilution from 10 μM to 0.51 nM, 10 concentrations
Procedure: as §4

[5] = TOV21G cells, 120 hours, CellTiter-Glo
[6] = Homo sapiens, TOV21G cells, 120 hours, CellTiter-Glo

Structure (SMILES) | IC50 [1, 5] | IC50 (ATR kinase) | IC50 (MV4-11 (leukemia) cells) | IC50 [1, 6] | IC50 (MV4-11 (leukemia) cells; Homo sapiens) | also measured
Cc1nn(CCO)c(C)c1-c1cc(N2CCOC[C@H]2C)nc2c(-c3ccn[nH]3)cnn12 [Compound A18] | 0.56 µM | 8 nM | 0.74 µM |  |  | 
Cc1cncc(-n2nc(C)c(-c3cc(N4CCOC[C@H]4C)nc4c(-c5ccn[nH]5)cnn34)c2C)c1 [Compound A23] |  | 4 nM |  | 0.26 µM | 0.3 µM | 
Cc1nnn(C)c1-c1cc(N2CCOC[C@H]2C)nc2c(-c3ccn[nH]3)cnn12 [Compound A8] | 0.78 µM | 84 nM | 0.68 µM |  |  | 
Cc1nn(C(=O)N2CCNCC2)c(C)c1-c1cc(N2CCOC[C@H]2C)nc2c(-c3ccn[nH]3)cnn12 [Compound A15] | 0.27 µM | 13 nM | 0.45 µM |  |  | 
Cc1nn(-c2cncc(C(N)=O)c2)c(C)c1-c1cc(N2CCOC[C@H]2C)nc2c(-c3ccn[nH]3)cnn12 [Compound A17] | 1.29 µM | 3 nM | 0.85 µM |  |  | 
Cc1nn(C2CCNC[C@@H]2F)c(C)c1-c1cc(N2CCOC[C@H]2C)nc2c(-c3ccn[nH]3)cnn12 (some centres unmarked) [Compound A16-I] | 1.4 µM | 33 nM | 0.89 µM |  |  | 
C[C@@H]1COCCN1c1cc(C2(O)CCOCC2)n2ncc(-c3ccn[nH]3)c2n1 [Compound A20] | 0.73 µM | 188 nM | 0.92 µM |  |  | 
Cc1nn(-c2ccncc2)c(C)c1-c1cc(N2CCOC[C@H]2C)nc2c(-c3ccn[nH]3)cnn12 [Compound A24] |  | 2 nM |  | 0.15 µM | 0.23 µM | 
Cc1nn(-c2ccc(=O)[nH]c2)c(C)c1-c1cc(N2CCOC[C@H]2C)nc2c(-c3ccn[nH]3)cnn12 [Compound A14] |  | 3 nM |  |  |  | 
Cc1nn(-c2cccnc2)c(C)c1-c1cc(N2CCOC[C@H]2C)nc2c(-c3ccn[nH]3)cnn12 [Compound A22] |  | 2 nM |  | 0.19 µM | 0.23 µM | 
Cc1nn(C2CCNCC2)c(C)c1-c1cc(N2CCOC[C@H]2C)nc2c(-c3ccn[nH]3)cnn12 [Compound A3] |  | 184 nM |  |  |  | 
Cc1nn(-c2ccnnc2)c(C)c1-c1cc(N2CCOC[C@H]2C)nc2c(-c3ccn[nH]3)cnn12 [Compound A13] |  | 2 nM |  | 0.21 µM | 0.28 µM | 
Cc1nn(-c2cncc(C(F)F)c2)c(C)c1-c1cc(N2CCOC[C@H]2C)nc2c(-c3ccn[nH]3)cnn12 [Compound A10] |  | 3 nM |  |  | 0.27 µM | IC50 (DNA-PK): 1.26 µM; IC50 ([1]; Homo sapiens, TOV21G, 120 h): 0.3 µM; AUC [2]: 14300 ng·h/mL; Cmax [2]: 4890 ng/mL; Tmax [2]: 0.25 h; half-life [2]: 1.76 h; half-life at 2 nM [3]: 0.6 h; half-life at 2 nM [4]: 2.7 h; IC50 (ATM): 4.12 µM
Cc1nn(C2CCNCC2)c(C(F)(F)F)c1-c1cc(N2CCOC[C@H]2C)nc2c(-c3ccn[nH]3)cnn12 [Compound A1] |  | 70 nM |  | 0.66 µM | 0.66 µM | 
Cc1noc(C)c1-c1cc(N2CCOC[C@H]2C)nc2c(-c3ccn[nH]3)cnn12 [Compound A4] |  | 74 nM |  | 1.05 µM | 0.75 µM | 
Cc1nn(C2CCNCC2)c(C(F)(F)F)c1-c1cc(N2CCOC[C@H]2C)nc2c(-c3ccccn3)cnn12 [Compound A6] |  | 17 nM |  |  |  | 
Cc1nn(-c2cncc(C#N)c2)c(C)c1-c1cc(N2CCOC[C@H]2C)nc2c(-c3ccn[nH]3)cnn12 [Compound A11] |  |  |  | 0.38 µM | 0.5 µM | 
Cc1c(-c2cc(N3CCOC[C@H]3C)nc3c(-c4ccn[nH]4)cnn23)c(C(F)(F)F)nn1C1CCNCC1 [Compound A2] |  | 33 nM |  | 0.83 µM | 0.78 µM | 
Cc1nn(-c2cncc(F)c2)c(C)c1-c1cc(N2CCOC[C@H]2C)nc2c(-c3ccn[nH]3)cnn12 [Compound A9] |  | 2 nM |  |  | 0.25 µM | IC50 (PI3Kα): 4.06 µM; IC50 (DNA-PK): 0.303 µM; IC50 ([1]; Homo sapiens, TOV21G, 120 h): 0.28 µM; AUC [2]: 6950 ng·h/mL; Cmax [2]: 1810 ng/mL; Tmax [2]: 0.25 h; half-life [2]: 3.3 h; half-life at 2 nM [3]: 1.43 h; half-life at 2 nM [4]: 3.63 h; IC50 (PI3Kδ): 1.13 µM; IC50 (mTOR): 1.83 µM; IC50 (ATM): 6.37 µM
Cc1nn(C2CCNCC2)c(C(F)(F)F)c1-c1cc(N2CCOC[C@H]2C)nc2c(-c3cccs3)cnn12 [Compound A7] |  | 12 nM |  |  |  | 
Cc1nn(-c2cncc(Cl)c2)c(C)c1-c1cc(N2CCOC[C@H]2C)nc2c(-c3ccn[nH]3)cnn12 [Compound A12] |  | 2 nM |  | 0.33 µM | 0.26 µM | AUC [2]: 8330 ng·h/mL; Cmax [2]: 2270 ng/mL; Tmax [2]: 0.33 h; half-life [2]: 1.98 h
C[C@@H]1COCCN1c1cc(-c2cccnc2C(F)(F)F)n2ncc(-c3ccn[nH]3)c2n1 [Compound A21] |  | 52 nM |  | 0.63 µM | 0.74 µM | 
Cc1nn(-c2cncc(O)c2)c(C)c1-c1cc(N2CCOC[C@H]2C)nc2c(-c3ccn[nH]3)cnn12 [Compound A19] | 0.66 µM | 4 nM | 0.6 µM |  |  | 
Cc1nn(C2CCNC[C@H]2F)c(C)c1-c1cc(N2CCOC[C@H]2C)nc2c(-c3ccn[nH]3)cnn12 (some centres unmarked) [Compound A16-II] | 0.52 µM | 31 nM | 0.57 µM |  |  | 
